Earlier results on one compound are cited in publication PMC9851200, “Multiparameter phenotypic screening for endogenous TFEB and TFE3 translocation identifies novel chemical series modulating lysosome function” (Autophagy, 2022).

Holding throughout (design): method as in original PKIS2 published data
Data set [1] has as its target kinases (KINOMEscan panel) (Homo sapiens, UniProt P21127). As to conditions: CDK11B; Published KINOMEscan; ref original PKIS2 published data; cited from earlier work.
Data set [2] addresses kinases (KINOMEscan panel) (Homo sapiens, UniProt P27037). As to conditions: ACVR2A; Published KINOMEscan; ref original PKIS2 published data; cited from earlier work.
The target in data set [3] is kinases (KINOMEscan panel) (Homo sapiens, UniProt P53355). The note with it: kinase DAPK1; Published KINOMEscan; ref original PKIS2 published data; cited from earlier work.
The target in data set [4] is kinases (KINOMEscan panel) (Homo sapiens, UniProt P08922). As to conditions: kinase ROS1; Published KINOMEscan; ref original PKIS2 published data; cited from earlier work.
The target of data set [5] is T1, kinases (KINOMEscan panel) (Homo sapiens, UniProt Q14164).
T1 sequence (Q14164 1-716): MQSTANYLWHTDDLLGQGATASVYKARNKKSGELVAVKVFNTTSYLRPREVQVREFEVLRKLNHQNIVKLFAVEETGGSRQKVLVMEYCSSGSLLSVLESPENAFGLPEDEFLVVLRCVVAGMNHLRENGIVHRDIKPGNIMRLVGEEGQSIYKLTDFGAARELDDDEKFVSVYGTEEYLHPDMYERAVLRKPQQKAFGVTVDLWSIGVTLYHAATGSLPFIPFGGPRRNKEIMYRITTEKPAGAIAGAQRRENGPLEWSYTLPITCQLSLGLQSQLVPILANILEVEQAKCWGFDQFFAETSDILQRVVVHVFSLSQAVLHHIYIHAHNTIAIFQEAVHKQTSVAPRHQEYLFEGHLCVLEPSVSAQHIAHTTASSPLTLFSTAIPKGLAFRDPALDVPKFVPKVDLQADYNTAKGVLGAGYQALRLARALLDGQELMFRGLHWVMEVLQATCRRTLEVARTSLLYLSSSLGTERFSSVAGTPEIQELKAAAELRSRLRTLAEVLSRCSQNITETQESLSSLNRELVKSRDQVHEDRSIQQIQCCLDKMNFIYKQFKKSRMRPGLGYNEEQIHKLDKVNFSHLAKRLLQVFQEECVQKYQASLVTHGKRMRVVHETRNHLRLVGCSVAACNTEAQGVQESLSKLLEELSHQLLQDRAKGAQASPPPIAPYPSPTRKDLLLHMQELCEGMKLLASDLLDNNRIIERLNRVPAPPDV
As to conditions: cited from earlier work.

For data set [6], the target named is kinases (KINOMEscan panel) (Homo sapiens, UniProt O60674). The note with it: JAK2(JH1domain-catalytic); Published KINOMEscan; ref original PKIS2 published data; cited from earlier work.
Data set [7] has as its target T2, kinases (KINOMEscan panel) (Homo sapiens, UniProt Q6ZN16).
T2 sequence (Q6ZN16 1-1313): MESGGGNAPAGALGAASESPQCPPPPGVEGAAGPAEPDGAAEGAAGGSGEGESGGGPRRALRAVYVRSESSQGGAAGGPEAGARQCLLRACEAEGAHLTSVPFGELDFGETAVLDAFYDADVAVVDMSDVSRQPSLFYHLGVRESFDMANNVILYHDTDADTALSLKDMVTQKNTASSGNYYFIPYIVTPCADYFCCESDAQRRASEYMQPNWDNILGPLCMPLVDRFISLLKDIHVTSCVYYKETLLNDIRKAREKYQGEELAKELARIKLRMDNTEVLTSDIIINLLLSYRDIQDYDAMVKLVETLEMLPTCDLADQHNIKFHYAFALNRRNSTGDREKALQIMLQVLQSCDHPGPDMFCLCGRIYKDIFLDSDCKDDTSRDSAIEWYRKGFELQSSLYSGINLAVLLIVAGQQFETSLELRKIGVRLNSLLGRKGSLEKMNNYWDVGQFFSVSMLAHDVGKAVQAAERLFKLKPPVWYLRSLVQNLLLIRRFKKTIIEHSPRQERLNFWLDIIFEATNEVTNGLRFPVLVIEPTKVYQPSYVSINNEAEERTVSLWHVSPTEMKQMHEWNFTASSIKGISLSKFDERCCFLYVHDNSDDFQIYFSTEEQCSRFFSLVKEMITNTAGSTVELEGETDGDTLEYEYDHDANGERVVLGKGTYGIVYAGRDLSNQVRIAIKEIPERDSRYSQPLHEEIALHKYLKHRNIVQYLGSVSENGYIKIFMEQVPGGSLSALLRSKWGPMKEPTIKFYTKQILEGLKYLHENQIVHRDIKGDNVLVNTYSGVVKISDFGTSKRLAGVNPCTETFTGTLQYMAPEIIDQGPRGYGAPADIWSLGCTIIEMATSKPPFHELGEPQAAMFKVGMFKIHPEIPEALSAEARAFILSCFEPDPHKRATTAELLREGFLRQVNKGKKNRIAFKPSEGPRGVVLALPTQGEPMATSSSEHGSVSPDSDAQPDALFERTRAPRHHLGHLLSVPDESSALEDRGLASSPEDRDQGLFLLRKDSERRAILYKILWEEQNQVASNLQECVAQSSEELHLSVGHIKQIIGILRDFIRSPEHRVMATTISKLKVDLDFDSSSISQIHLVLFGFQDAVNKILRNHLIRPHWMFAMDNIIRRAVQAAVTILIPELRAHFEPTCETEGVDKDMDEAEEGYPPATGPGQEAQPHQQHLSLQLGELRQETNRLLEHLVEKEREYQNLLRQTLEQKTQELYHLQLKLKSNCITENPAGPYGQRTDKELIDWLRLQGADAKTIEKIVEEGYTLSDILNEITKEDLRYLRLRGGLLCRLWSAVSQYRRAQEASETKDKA
The note with it: Published KINOMEscan; ref original PKIS2 published data; cited from earlier work.

The target in data set [8] is kinases (KINOMEscan panel) (Homo sapiens, UniProt P49759). As to conditions: kinase CLK1; Published KINOMEscan; ref original PKIS2 published data; cited from earlier work.

Sequence of kinases (KINOMEscan panel) (Homo sapiens, UniProt P27037) (P27037 20-513): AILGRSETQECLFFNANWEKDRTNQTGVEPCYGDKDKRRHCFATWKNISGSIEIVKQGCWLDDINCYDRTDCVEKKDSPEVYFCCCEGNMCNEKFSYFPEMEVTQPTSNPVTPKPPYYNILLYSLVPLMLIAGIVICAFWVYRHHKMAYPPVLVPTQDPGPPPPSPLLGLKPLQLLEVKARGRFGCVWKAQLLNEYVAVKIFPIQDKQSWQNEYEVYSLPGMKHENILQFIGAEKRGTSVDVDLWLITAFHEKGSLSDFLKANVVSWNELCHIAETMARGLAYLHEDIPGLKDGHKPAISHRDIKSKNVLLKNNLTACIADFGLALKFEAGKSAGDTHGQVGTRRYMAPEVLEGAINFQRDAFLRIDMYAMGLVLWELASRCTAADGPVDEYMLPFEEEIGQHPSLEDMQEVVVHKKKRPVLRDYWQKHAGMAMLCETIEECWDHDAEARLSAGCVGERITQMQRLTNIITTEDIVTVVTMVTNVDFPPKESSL
Sequence of kinases (KINOMEscan panel) (Homo sapiens, UniProt P21127) (P21127 whole entry): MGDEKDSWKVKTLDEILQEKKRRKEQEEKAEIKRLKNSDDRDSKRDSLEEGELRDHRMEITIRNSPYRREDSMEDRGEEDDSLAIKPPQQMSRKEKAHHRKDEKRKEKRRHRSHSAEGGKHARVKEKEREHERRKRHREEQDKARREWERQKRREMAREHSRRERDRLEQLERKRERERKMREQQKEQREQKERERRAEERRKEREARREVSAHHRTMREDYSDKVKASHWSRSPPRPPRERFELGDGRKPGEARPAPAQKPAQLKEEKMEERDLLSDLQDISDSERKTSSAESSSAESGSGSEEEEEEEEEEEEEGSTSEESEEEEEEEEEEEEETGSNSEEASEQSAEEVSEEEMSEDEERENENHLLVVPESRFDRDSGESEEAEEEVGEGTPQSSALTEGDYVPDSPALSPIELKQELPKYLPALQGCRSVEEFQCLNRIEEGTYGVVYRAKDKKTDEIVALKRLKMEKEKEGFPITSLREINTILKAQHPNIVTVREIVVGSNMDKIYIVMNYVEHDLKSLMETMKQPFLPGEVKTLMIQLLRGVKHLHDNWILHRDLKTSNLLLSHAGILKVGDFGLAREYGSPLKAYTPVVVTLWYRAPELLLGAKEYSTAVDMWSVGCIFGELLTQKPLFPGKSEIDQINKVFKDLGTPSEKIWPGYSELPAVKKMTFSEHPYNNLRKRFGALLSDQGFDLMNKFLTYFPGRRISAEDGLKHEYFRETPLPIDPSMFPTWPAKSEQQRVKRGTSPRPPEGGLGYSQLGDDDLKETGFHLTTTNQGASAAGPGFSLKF
Sequence of kinases (KINOMEscan panel) (Homo sapiens, UniProt O60674) (O60674 whole entry): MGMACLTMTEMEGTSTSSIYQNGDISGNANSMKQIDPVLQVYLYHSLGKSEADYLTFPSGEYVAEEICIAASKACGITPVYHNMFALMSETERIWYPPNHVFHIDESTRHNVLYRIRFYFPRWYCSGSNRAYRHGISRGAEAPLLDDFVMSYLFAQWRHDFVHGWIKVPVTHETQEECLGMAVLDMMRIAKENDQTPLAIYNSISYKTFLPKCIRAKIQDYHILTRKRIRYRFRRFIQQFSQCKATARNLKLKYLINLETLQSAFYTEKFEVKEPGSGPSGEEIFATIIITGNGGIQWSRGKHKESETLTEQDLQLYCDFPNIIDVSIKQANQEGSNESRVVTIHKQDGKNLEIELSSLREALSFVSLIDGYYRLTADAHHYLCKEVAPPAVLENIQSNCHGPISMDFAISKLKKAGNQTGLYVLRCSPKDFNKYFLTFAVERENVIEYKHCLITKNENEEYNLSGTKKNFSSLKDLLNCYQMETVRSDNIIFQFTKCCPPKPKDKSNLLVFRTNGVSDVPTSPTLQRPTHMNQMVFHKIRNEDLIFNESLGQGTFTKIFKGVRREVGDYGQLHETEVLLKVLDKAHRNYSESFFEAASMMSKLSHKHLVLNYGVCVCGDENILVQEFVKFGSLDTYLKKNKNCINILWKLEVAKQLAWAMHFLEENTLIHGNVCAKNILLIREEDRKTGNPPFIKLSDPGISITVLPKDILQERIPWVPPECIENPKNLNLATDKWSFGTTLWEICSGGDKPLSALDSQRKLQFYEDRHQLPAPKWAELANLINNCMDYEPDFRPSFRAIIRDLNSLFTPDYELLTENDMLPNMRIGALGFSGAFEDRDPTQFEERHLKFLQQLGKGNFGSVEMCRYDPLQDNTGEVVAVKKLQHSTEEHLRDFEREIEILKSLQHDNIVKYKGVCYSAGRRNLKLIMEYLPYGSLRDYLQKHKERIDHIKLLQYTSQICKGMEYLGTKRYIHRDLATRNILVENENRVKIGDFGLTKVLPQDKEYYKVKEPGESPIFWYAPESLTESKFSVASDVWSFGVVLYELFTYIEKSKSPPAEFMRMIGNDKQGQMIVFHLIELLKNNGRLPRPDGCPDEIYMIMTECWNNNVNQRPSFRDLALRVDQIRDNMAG
Sequence of kinases (KINOMEscan panel) (Homo sapiens, UniProt P08922) (P08922 28-2347): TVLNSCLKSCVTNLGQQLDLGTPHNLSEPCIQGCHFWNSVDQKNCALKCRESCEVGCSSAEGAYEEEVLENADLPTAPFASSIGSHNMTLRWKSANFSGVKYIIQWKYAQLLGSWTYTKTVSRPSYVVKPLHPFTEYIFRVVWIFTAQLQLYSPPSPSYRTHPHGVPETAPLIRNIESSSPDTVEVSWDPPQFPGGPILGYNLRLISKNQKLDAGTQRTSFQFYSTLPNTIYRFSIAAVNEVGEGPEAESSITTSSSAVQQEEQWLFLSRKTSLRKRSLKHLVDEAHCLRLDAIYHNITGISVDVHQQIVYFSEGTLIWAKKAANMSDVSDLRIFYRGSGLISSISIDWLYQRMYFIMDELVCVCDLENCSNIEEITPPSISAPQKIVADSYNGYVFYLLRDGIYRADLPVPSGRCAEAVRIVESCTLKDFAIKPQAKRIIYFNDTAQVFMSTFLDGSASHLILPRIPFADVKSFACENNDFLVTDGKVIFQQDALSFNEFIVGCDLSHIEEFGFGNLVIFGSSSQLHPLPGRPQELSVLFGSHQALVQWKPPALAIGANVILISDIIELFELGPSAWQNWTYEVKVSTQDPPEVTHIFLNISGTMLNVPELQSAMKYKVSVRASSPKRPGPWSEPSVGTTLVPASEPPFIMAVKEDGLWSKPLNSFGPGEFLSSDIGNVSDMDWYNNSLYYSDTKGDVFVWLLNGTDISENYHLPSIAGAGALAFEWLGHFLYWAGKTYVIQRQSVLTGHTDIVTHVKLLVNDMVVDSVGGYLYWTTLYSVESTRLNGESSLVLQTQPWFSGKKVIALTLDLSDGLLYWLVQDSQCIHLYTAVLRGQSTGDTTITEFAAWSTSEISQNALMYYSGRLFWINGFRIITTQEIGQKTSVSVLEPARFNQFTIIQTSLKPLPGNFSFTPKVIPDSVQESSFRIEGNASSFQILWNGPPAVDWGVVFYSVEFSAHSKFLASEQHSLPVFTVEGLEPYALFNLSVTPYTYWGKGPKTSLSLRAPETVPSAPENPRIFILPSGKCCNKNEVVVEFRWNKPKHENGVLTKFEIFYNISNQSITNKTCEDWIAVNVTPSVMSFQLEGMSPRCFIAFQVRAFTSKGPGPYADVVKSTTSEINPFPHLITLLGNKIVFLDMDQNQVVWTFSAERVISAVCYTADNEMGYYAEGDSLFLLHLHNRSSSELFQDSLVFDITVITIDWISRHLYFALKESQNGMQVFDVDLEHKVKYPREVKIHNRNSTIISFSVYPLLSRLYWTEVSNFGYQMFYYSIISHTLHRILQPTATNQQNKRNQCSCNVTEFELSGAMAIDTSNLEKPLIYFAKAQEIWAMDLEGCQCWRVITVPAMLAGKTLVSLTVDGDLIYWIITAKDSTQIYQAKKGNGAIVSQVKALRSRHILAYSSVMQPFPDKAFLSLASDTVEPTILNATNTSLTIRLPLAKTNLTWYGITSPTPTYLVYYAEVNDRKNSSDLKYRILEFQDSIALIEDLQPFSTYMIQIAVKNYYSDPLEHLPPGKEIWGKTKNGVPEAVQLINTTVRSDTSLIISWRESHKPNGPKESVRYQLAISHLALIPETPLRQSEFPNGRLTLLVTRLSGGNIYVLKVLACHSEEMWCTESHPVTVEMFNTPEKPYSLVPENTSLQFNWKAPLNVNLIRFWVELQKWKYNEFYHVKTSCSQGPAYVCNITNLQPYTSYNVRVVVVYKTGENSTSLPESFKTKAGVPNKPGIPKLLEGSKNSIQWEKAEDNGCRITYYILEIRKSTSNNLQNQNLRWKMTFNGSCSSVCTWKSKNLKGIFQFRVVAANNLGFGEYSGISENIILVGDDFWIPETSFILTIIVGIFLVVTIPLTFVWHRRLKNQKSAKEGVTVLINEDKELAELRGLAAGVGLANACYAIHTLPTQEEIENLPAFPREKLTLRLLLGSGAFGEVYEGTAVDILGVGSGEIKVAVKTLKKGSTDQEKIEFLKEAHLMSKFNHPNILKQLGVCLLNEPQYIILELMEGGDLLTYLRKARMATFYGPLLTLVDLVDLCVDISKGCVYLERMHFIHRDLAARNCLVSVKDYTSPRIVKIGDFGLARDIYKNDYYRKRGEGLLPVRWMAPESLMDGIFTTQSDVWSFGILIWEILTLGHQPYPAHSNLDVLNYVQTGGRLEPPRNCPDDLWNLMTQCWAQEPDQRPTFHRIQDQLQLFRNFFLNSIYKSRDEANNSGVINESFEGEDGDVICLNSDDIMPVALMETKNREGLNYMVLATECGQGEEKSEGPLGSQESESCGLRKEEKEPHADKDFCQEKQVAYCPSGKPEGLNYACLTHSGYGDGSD

With `Cc1cccc(-c2nc(Nc3ccncc3)c3ccccc3n2)n1` [NK215], the “KINOMEscan CDK11B” value in data set [1] is given as 0. Also, the “KINOMEscan ACVR2A” value in data set [2] is recorded as 24. For the same compound, the “KINOMEscan DAPK1” value in data set [3] was 0. Moreover, the “KINOMEscan ROS1” value in data set [4] is 0. Further, the “KINOMEscan IKBKE/IKK-epsilon” value in data set [5] is given as 0. In data set [6], the “KINOMEscan JAK2(JH1domain-catalytic)” value is recorded as 0. Further, the “KINOMEscan MAP3K15” value in data set [7] is 0. Moreover, in data set [8], the “KINOMEscan CLK1” value is listed as 10.
